Source: PubChem BioAssay (NCI)
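Exposure lasted 48 hours, with cells grown in 96-well plates and compounds tested at five concentrations. GI50 is the concentration that inhibits growth by half. TGI: concentration producing complete growth inhibition.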

Assays:
Assay in all cases: inhibition of tumour cell growth, NCI panel, 48 h
MDA-MB-231 breast = system: MDA-MB-231 breast
SW-620 colon = system: SW-620 colon
SF-539 CNS = system: SF-539 CNS
IGROV1 ovarian = system: IGROV1 ovarian
SR leukemia = system: SR leukemia
DU-145 prostate = system: DU-145 prostate
SN12C renal = system: SN12C renal
SF-268 CNS = system: SF-268 CNS
MALME-3M melanoma = system: MALME-3M melanoma
SK-MEL-5 melanoma = system: SK-MEL-5 melanoma

Compound: C[C@]12CC[C@@H](OC(=O)N(CCCl)N=O)C[C@@H]1CC[C@@H]1[C@@H]2CC[C@]2(C)C(=O)CC[C@@H]12
- GI50 (MDA-MB-231 breast): 13500 nM
- TGI (MDA-MB-231 breast): 29800 nM
- GI50 (SW-620 colon): 7670 nM
- TGI (SW-620 colon): 22600 nM
- GI50 (SF-539 CNS): 330 nM
- TGI (SF-539 CNS): 13400 nM
- GI50 (IGROV1 ovarian): 3750 nM
- TGI (IGROV1 ovarian): 24000 nM
- GI50 (SR leukemia): 15.6 nM
- TGI (SR leukemia): 6820 nM
- GI50 (DU-145 prostate): 671 nM
- TGI (DU-145 prostate): 7540 nM
- GI50 (SN12C renal): 8010 nM
- TGI (SN12C renal): 23300 nM
- GI50 (SF-268 CNS): 632 nM
- TGI (SF-268 CNS): 18900 nM
- GI50 (MALME-3M melanoma): 18100 nM
- TGI (MALME-3M melanoma): 50200 nM
- GI50 (SK-MEL-5 melanoma): 3930 nM
- TGI (SK-MEL-5 melanoma): 19500 nM

Compound: N=c1ccc2nc3c(cc(N)c4ccccc43)oc-2c1
- GI50 (MDA-MB-231 breast): 179 nM
- TGI (MDA-MB-231 breast): 1210 nM
- GI50 (SW-620 colon): 252 nM
- TGI (SW-620 colon): 754 nM
- GI50 (SF-539 CNS): 293 nM
- TGI (SF-539 CNS): 1050 nM
- GI50 (IGROV1 ovarian): 180 nM
- TGI (IGROV1 ovarian): 643 nM
- GI50 (SR leukemia): 285 nM
- TGI (SR leukemia): 1290 nM
- GI50 (DU-145 prostate): 265 nM
- TGI (DU-145 prostate): 692 nM
- GI50 (SN12C renal): 253 nM
- TGI (SN12C renal): 801 nM
- GI50 (SF-268 CNS): 431 nM
- TGI (SF-268 CNS): 1750 nM
- GI50 (MALME-3M melanoma): 169 nM
- TGI (MALME-3M melanoma): 362 nM
- GI50 (SK-MEL-5 melanoma): 144 nM
- TGI (SK-MEL-5 melanoma): 277 nM

Compound: COc1cc(/C=C2\CN(C(=O)CCN3CCC(=NO)CC3)C/C(=C\c3cc(OC)c(OC)c(OC)c3)C2=O)cc(OC)c1OC
- GI50 (MDA-MB-231 breast): 323 nM
- TGI (MDA-MB-231 breast): 1110 nM
- GI50 (SW-620 colon): 273 nM
- TGI (SW-620 colon): 860 nM
- GI50 (SF-539 CNS): 277 nM
- TGI (SF-539 CNS): 928 nM
- GI50 (IGROV1 ovarian): 275 nM
- TGI (IGROV1 ovarian): 793 nM
- GI50 (SR leukemia): 255 nM
- TGI (SR leukemia): > 27700 nM
- GI50 (DU-145 prostate): 657 nM
- TGI (DU-145 prostate): 1700 nM
- GI50 (SN12C renal): 241 nM
- TGI (SN12C renal): 695 nM
- GI50 (SF-268 CNS): 535 nM
- TGI (SF-268 CNS): 1950 nM
- GI50 (MALME-3M melanoma): 211 nM
- TGI (MALME-3M melanoma): 579 nM
- GI50 (SK-MEL-5 melanoma): 302 nM
- TGI (SK-MEL-5 melanoma): 927 nM

Compound: CNCCNc1nc2ccccc2c2c(=O)c3cc(OC)ccc3sc12
- GI50 (MDA-MB-231 breast): 1540 nM
- TGI (MDA-MB-231 breast): 3080 nM
- GI50 (SW-620 colon): 1410 nM
- TGI (SW-620 colon): 2910 nM
- GI50 (SF-539 CNS): 1660 nM
- TGI (SF-539 CNS): 3030 nM
- GI50 (IGROV1 ovarian): 1550 nM
- TGI (IGROV1 ovarian): 3040 nM
- GI50 (SR leukemia): 1740 nM
- TGI (SR leukemia): 4230 nM
- GI50 (DU-145 prostate): 1730 nM
- TGI (DU-145 prostate): 3160 nM
- GI50 (SN12C renal): 1500 nM
- TGI (SN12C renal): 2960 nM
- GI50 (SF-268 CNS): 1640 nM
- TGI (SF-268 CNS): 3390 nM
- GI50 (MALME-3M melanoma): 1820 nM
- TGI (MALME-3M melanoma): 3310 nM
- GI50 (SK-MEL-5 melanoma): 1710 nM
- TGI (SK-MEL-5 melanoma): 3090 nM

Compound: Nc1cc2[nH]cnc2c(=O)[nH]1
- TGI (MDA-MB-231 breast): > 300000 nM
- TGI (SW-620 colon): > 300000 nM
- TGI (SF-539 CNS): > 234000 nM
- TGI (IGROV1 ovarian): > 300000 nM
- TGI (SR leukemia): > 94900 nM
- TGI (DU-145 prostate): > 300000 nM
- TGI (SN12C renal): > 300000 nM
- TGI (SF-268 CNS): > 300000 nM
- TGI (MALME-3M melanoma): 298000 nM
- TGI (SK-MEL-5 melanoma): > 290000 nM

Compound: CC[C@]1(O)C[C@@H]2CN(CCc3c([nH]c4ccccc34)[C@@](C(=O)OC)(c3cc4c(cc3OC)N(C)[C@H]3[C@@](O)(C(N)=O)[C@H](O)[C@]5(CC)[C@@H]6C[C@@H]6CN6CC[C@]43[C@@H]65)C2)C1
- GI50 (MDA-MB-231 breast): 5.48 nM
- TGI (MDA-MB-231 breast): > 16200 nM
- GI50 (SW-620 colon): < 3.33 nM
- TGI (SW-620 colon): > 33300 nM
- GI50 (SF-539 CNS): < 3.33 nM
- TGI (SF-539 CNS): 14.3 nM
- GI50 (IGROV1 ovarian): 17.2 nM
- TGI (IGROV1 ovarian): > 33300 nM
- GI50 (SR leukemia): < 3.33 nM
- TGI (SR leukemia): 10200 nM
- GI50 (DU-145 prostate): < 3.33 nM
- TGI (DU-145 prostate): 795 nM
- GI50 (SN12C renal): 37.3 nM
- TGI (SN12C renal): > 33300 nM
- GI50 (SF-268 CNS): 3.52 nM
- TGI (SF-268 CNS): > 33300 nM
- GI50 (MALME-3M melanoma): 4900 nM
- TGI (MALME-3M melanoma): 32100 nM
- GI50 (SK-MEL-5 melanoma): < 3.33 nM
- TGI (SK-MEL-5 melanoma): 54.6 nM

Compound: COc1nc(C)cc2c(=O)n(-c3ccccc3)n(CC(O)CN3CCN(c4ccc(Cl)cc4)CC3)c(=O)c12 (stereo not given)
- GI50 (MDA-MB-231 breast): > 50000 nM
- TGI (MDA-MB-231 breast): > 50000 nM
- GI50 (SW-620 colon): > 50000 nM
- TGI (SW-620 colon): > 50000 nM
- GI50 (SF-539 CNS): 22700 nM
- TGI (SF-539 CNS): > 50000 nM
- GI50 (IGROV1 ovarian): > 50000 nM
- TGI (IGROV1 ovarian): > 50000 nM
- GI50 (SR leukemia): > 50000 nM
- TGI (SR leukemia): > 50000 nM
- GI50 (DU-145 prostate): > 50000 nM
- TGI (DU-145 prostate): > 50000 nM
- GI50 (SN12C renal): > 50000 nM
- TGI (SN12C renal): > 50000 nM
- GI50 (SF-268 CNS): 24800 nM
- TGI (SF-268 CNS): > 50000 nM
- GI50 (MALME-3M melanoma): > 50000 nM
- TGI (MALME-3M melanoma): > 50000 nM
- GI50 (SK-MEL-5 melanoma): 32600 nM
- TGI (SK-MEL-5 melanoma): > 50000 nM

Compound: C/C(=C(/c1ccc(O)cc1)c1ccc(Cl)cc1)c1ccccc1
- GI50 (MDA-MB-231 breast): 653 nM
- TGI (MDA-MB-231 breast): 1860 nM
- GI50 (SW-620 colon): 800 nM
- TGI (SW-620 colon): 2780 nM
- GI50 (SF-539 CNS): 545 nM
- TGI (SF-539 CNS): 1250 nM
- GI50 (IGROV1 ovarian): 671 nM
- TGI (IGROV1 ovarian): 2220 nM
- GI50 (SR leukemia): 920 nM
- TGI (SR leukemia): 7980 nM
- GI50 (DU-145 prostate): 719 nM
- TGI (DU-145 prostate): 1910 nM
- GI50 (SN12C renal): 466 nM
- TGI (SN12C renal): 977 nM
- GI50 (SF-268 CNS): 582 nM
- TGI (SF-268 CNS): 1610 nM
- GI50 (MALME-3M melanoma): 459 nM
- TGI (MALME-3M melanoma): 1000 nM
- GI50 (SK-MEL-5 melanoma): 454 nM
- TGI (SK-MEL-5 melanoma): 849 nM

Compound: Oc1c(CN2CCCC2)cc(CSCc2ccccc2)c2cccnc12
- GI50 (MDA-MB-231 breast): 987 nM
- TGI (MDA-MB-231 breast): 12200 nM
- GI50 (SW-620 colon): 797 nM
- TGI (SW-620 colon): 11200 nM
- GI50 (SF-539 CNS): 1350 nM
- TGI (SF-539 CNS): 3930 nM
- GI50 (IGROV1 ovarian): 1930 nM
- TGI (IGROV1 ovarian): 11300 nM
- GI50 (SR leukemia): 392 nM
- TGI (SR leukemia): 2320 nM
- GI50 (DU-145 prostate): 1280 nM
- TGI (DU-145 prostate): 10700 nM
- GI50 (SN12C renal): 1690 nM
- TGI (SN12C renal): 13500 nM
- GI50 (SF-268 CNS): 752 nM
- TGI (SF-268 CNS): 14900 nM
- GI50 (MALME-3M melanoma): 2040 nM
- TGI (MALME-3M melanoma): 9060 nM
- GI50 (SK-MEL-5 melanoma): 350 nM
- TGI (SK-MEL-5 melanoma): 1600 nM

Compound: CC(C(=O)O)c1ccc(-c2ccccc2)c(F)c1 (stereo not given)
- TGI (MDA-MB-231 breast): > 100000 nM
- TGI (SW-620 colon): > 100000 nM
- TGI (SF-539 CNS): > 100000 nM
- TGI (IGROV1 ovarian): > 100000 nM
- TGI (SR leukemia): > 100000 nM
- TGI (DU-145 prostate): > 100000 nM
- TGI (SN12C renal): > 100000 nM
- TGI (SF-268 CNS): > 100000 nM
- TGI (MALME-3M melanoma): > 100000 nM
- TGI (SK-MEL-5 melanoma): > 100000 nM
